From the supplement of paper PMC10307832

Key:
Experiment in all cases: relative viability (nuclei count vs DMSO), 5 days (fraction); higher = more cells survive
Ponatinib + Bortezomib = compound: Cc1ccc(C(=O)Nc2ccc(CN3CCN(C)CC3)c(C(F)(F)F)c2)cc1C#Cc1cnc2cccnn12 [Ponatinib] + CC(C)C[C@H](NC(=O)[C@H](Cc1ccccc1)NC(=O)c1cnccn1)B(O)O [Bortezomib] (partner 0.002 µM)
Method in brief: (§1)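 For relative viability, nuclei counts in treated wells were divided by those in vehicle wells. Lung cancer cell lines had been pin-tool dosed in 1536-well plates the day after seeding and cultured for 5 days, then fixed and stained in one step (final 0.05% Triton X-100, 1% formaldehyde, 1 ug/ml Hoechst) and imaged at 4×. Doses were one drug alone or a fixed anchor-drug dose plus five library-drug doses (not always all listed) in √10 steps, and values are duplicate-plate medians.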

Ponatinib + Olaparib = compound: Cc1ccc(C(=O)Nc2ccc(CN3CCN(C)CC3)c(C(F)(F)F)c2)cc1C#Cc1cnc2cccnn12 [Ponatinib] + O=C(c1cc(Cc2n[nH]c(=O)c3ccccc23)ccc1F)N1CCN(C(=O)C2CC2)CC1 [Olaparib] (partner 8 µM)
Method in brief: as §1

Pazopanib + Dasatinib = compound: Cc1ccc(Nc2nccc(N(C)c3ccc4c(C)n(C)nc4c3)n2)cc1S(N)(=O)=O [Pazopanib] + Cc1nc(Nc2ncc(C(=O)Nc3c(C)cccc3Cl)s2)cc(N2CCN(CCO)CC2)n1 [Dasatinib] (partner 0.075 µM)
Method in brief: as §1

Ponatinib + Pictilisib = compound: Cc1ccc(C(=O)Nc2ccc(CN3CCN(C)CC3)c(C(F)(F)F)c2)cc1C#Cc1cnc2cccnn12 [Ponatinib] + CS(=O)(=O)N1CCN(Cc2cc3nc(-c4cccc5[nH]ncc45)nc(N4CCOCC4)c3s2)CC1 [Pictilisib] (partner 1 µM)
Method in brief: as §1

Cell Line | relative viability (Ponatinib + Bortezomib; first compound 0.002 µM) | relative viability (Ponatinib + Bortezomib; first compound 0.006325 µM) | relative viability (Ponatinib + Bortezomib; first compound 0.06325 µM) | relative viability (Ponatinib + Bortezomib; first compound 0.2 µM) | relative viability (Ponatinib + Olaparib; first compound 0.002 µM) | relative viability (Ponatinib + Olaparib; first compound 0.006325 µM) | relative viability (Ponatinib + Olaparib; first compound 0.06325 µM) | relative viability (Ponatinib + Olaparib; first compound 0.2 µM) | relative viability (Pazopanib + Dasatinib; first compound 0.01 µM) | relative viability (Pazopanib + Dasatinib; first compound 0.03162 µM) | relative viability (Pazopanib + Dasatinib; first compound 0.1 µM) | relative viability (Pazopanib + Dasatinib; first compound 0.3162 µM) | relative viability (Pazopanib + Dasatinib; first compound 1 µM) | relative viability (Ponatinib + Pictilisib; first compound 0.002 µM) | relative viability (Ponatinib + Pictilisib; first compound 0.006325 µM) | relative viability (Ponatinib + Pictilisib; first compound 0.06325 µM) | relative viability (Ponatinib + Pictilisib; first compound 0.2 µM)
HCC-827 | 1 | 1.01 | 1.05 | 0.982 | 0.719 | 0.644 | 0.709 | 0.687 | 0.286 | 0.27 | 0.284 | 0.399 | 0.324 | 0.952 | 1.13 | 0.899 | 0.854
HOP-62 | 0.728 | 0.571 | 0.597 | 0.701 | 0.313 | 0.172 | 0.211 | 0.355 | 0.554 | 0.713 | 0.681 | 0.659 | 0.718 | 0.878 | 0.609 | 0.75 | 0.665
IA-LM | 0.695 | 0.623 | 0.785 | 0.79 | 0.705 | 0.835 | 0.785 | 0.646 |  |  |  |  |  | 0.428 | 0.386 | 0.572 | 0.442
LC-2-ad | 0.964 | 1.01 | 0.911 | 0.875 | 0.764 | 0.762 | 0.781 | 0.713 | 0.445 | 0.555 | 0.575 | 0.792 | 0.535 | 0.353 | 0.239 | 0.191 | 0.207
LCLC-97TM1 | 0.309 | 0.818 | 0.74 | 0.483 | 0.48 | 0.452 | 0.385 | 0.334 | 0.771 | 0.854 | 0.888 | 0.847 | 0.785 |  | 0.243 |  | 0.221
LCLC-103H | 1.05 | 1.12 | 1.23 | 1.25 | 0.754 | 0.743 | 0.838 | 0.694 | 0.314 | 0.472 | 0.495 | 0.451 | 0.459 | 0.543 | 0.592 | 0.636 | 0.572
LK-2 |  |  |  |  | 0.584 | 0.759 | 0.661 | 0.435 |  | 0.305 | 0.317 | 0.373 | 0.314 | 0.589 | 0.555 | 0.411 | 0.446
LOU-NH91 | 0.399 | 0.543 | 0.557 | 0.568 | 0.898 | 0.919 | 1.03 | 0.879 | 0.49 | 0.523 | 0.559 | 0.603 | 0.565 | 0.554 | 0.567 | 0.512 | 0.521
LU99A | 1.14 | 1.07 | 1.21 | 1.24 | 0.259 | 0.246 | 0.255 | 0.255 | 0.425 | 0.545 | 0.622 | 0.54 | 0.503 | 0.303 | 0.335 | 0.369 | 0.329
LXF-289 | 0.946 | 0.996 | 1 | 0.98 | 0.97 | 1.05 | 1.06 | 1.06 | 0.224 | 0.236 | 0.19 | 0.156 | 0.242 | 0.737 | 0.795 | 0.883 | 0.777
NCI-H23 | 0.942 | 1.04 | 1.15 | 0.853 | 0.327 | 0.343 | 0.466 | 0.328 | 0.722 | 0.852 | 0.94 | 0.869 | 0.894 | 0.588 | 0.592 | 0.571 | 0.44
NCI-H358 |  |  |  |  | 0.565 | 0.609 | 0.648 | 0.49 | 0.157 | 0.152 | 0.158 |  | 0.258 | 0.318 | 0.429 | 0.369 | 0.331
NCI-H522 |  |  |  |  | 0.731 | 0.708 | 0.632 | 0.507 | 0.614 | 0.865 | 0.968 | 0.897 | 0.918 |  |  |  | 
NCI-H1299 | 1.05 | 1 | 1.06 | 0.993 | 0.981 | 0.955 | 0.938 | 0.876 |  |  |  |  |  | 0.894 | 0.874 | 0.988 | 0.658
NCI-H1395 |  |  |  |  | 0.446 | 0.425 | 0.47 | 0.433 | 0.398 | 0.487 | 0.362 | 0.452 | 0.432 |  | 0.696 | 0.657 | 0.581
NCI-H1563 | 0.773 | 0.847 | 0.836 | 0.571 |  |  |  |  | 0.473 | 0.451 | 0.471 | 0.485 | 0.5 | 0.546 | 0.601 | 0.586 | 0.599
NCI-H1648 |  |  |  |  | 0.49 | 0.897 | 0.572 | 0.51 |  |  |  |  |  |  |  |  | 
NCI-H1703 | 0.296 | 0.261 | 0.26 | 0.143 | 0.37 | 0.449 | 0.262 | 0.207 |  |  |  |  |  | 0.278 | 0.228 | 0.223 | 0.205
NCI-H1793 |  |  |  |  | 0.882 | 0.986 | 1.01 | 0.756 |  | 0.357 | 0.412 | 0.372 | 0.533 | 0.335 | 0.344 | 0.206 | 0.356
NCI-H1944 |  |  |  |  | 0.378 | 0.455 | 0.427 | 0.441 |  | 0.226 | 0.226 | 0.237 | 0.247 | 0.319 | 0.407 | 0.403 | 0.374
NCI-H2170 |  |  |  |  | 0.583 | 0.599 | 0.631 | 0.639 | 0.536 | 0.572 | 0.537 | 0.511 | 0.639 | 0.325 | 0.322 | 0.351 | 0.354
NCI-H2342 |  |  |  |  | 0.473 | 0.483 | 0.424 | 0.467 | 0.303 | 0.339 | 0.305 | 0.297 | 0.278 |  |  |  | 
SK-MES-1 |  |  |  |  | 0.765 | 0.819 | 0.857 | 0.769 | 0.361 | 0.34 | 0.414 | 0.474 | 0.383 | 0.392 | 0.409 | 0.569 | 0.48
SW 900 |  |  |  |  | 0.958 | 0.867 | 0.95 | 0.725 | 0.539 | 0.731 | 0.596 | 0.66 | 0.543 |  |  |  | 
